We go through one compound from patent US11149014B2, “Method for treating pain or associated condition or symptom” (priority 2014, dated 2021).

For orientation: inhibition means the drop in the measured response relative to a control, in per cent.

Structures can show the parent of a compound that is named as a salt.

The test system of one series is TNFα. The series can be described thus: TNFα levels in sera of zymosan-injected Sabra mice (Elisa). Particulars: 24 hrs after application. Format: in vivo. As for the experimental part: Activity of HU-436 given orally were assayed in Sabra mice. Zymosan injected to mice left hind paw, induced inflammation, TNF (tumor necrosis factor) in the serum as well as pain. During 24 h, the inflammatory paw swelling response was assayed by caliper, whereas the pain in the hind paw, was determined by Von Frey monofiber instrument.
Sabra female, mice 6-7 weeks old, were employed. Zymosan 0.6 mgr in 40 micro-liters was injected into the left hind paw. Immediately thereafter 20 30, 50 or 100 mg/kg HU436 dissolved in olive oil, in 200 μl—was given orally. Two, six and twenty-four hours thereafter, the injected left hind paw of the mice (total 5-8 mice/treatment), were examined both for swelling (Inflammation) and pain (Von Frey). The levels of TNFα in the sera of Sabra mice were determined by Elisa, 24 hrs after HU-436 application.

For another series, the system named is C57BL. The series can be described thus: Preliminary toxicological studies in C57BL. Format: in vivo, mice.
The subject of another series is TNF-α. The series can be described thus: TNF-α in supernatants of TG macrophages treated with LPS (ELISA). Particulars: Mus musculus, Macrophage, 40 μg/ml, read-out: inhibition in TNF production. Format: cell-based, mice. As for the experimental part:
Peritoneal cells were harvested from C57BL/6 female mice 4 days after intra-peritoneal injection of 1.5 mL of 3% thioglycollate medium (Difco). The cells (TG macrophages) were washed with phosphate-buffered saline, re-suspended in Dulbecco's modified Eagle medium (DMEM) supplemented with 5% fetal calf serum (FCS), and plated (1.2×10^5) in 96-microwell flat-bottom plates (Nunc, Roskide, Denmark). Following 2-3 h incubation at 37° C., the non-adherent cells were removed by intensive rinsing. About 95% of the adherent cells were macrophages. These cells were applied for studying TNF production in-vitro.
TNF-α in the supernatants of TG macrophages treated with HU-436 (doses of […]) and LPS was determined by ELISA (R&D) with Ab pairs from Biosource (Camarillo, Calif.). Procedures were carried out following the manufacturer's instructions.

In a further series the test system is TNF. The series can be described thus: TNF level in serum of C57BL mice injected with LPS. The class given is in vivo. As to conditions: 30 mg/Kg injected together with LPS; 90 min after injection. As for the experimental part:
Three doses of HU-436 (10 mg/Kg, 20 mg/Kg and 30 mg/Kg) were each injected to three C57BL mice together with LPS. Ninety min fallowing the injections, the mice were bled and the TNF levels in the serum were determined.

For a further series, the system named is RAW 264.7 macrophages. The series can be described thus: Nitric oxide (NO) production by LPS-activated RAW 264.7 macrophages (Griess). Format: cell-based, mice. As to conditions: Mus musculus, RAW264.7; 60 μg/ml; LPS 1 μg/mL, 24 h. As for the experimental part: Raw 264.7 cells, a monocytic-macrophage cell line derived from BALB/c mice, were obtained from American Type Culture collection (Rockville, Md.). The cells were cultured in Dulbecco's modified Eagle medium (DMEM) supplemented with 5% fetal calf serum (FCS) and sodium pyrovate, glutamine, and antibiotics. For activation, the cells were incubated with LPS (E. coli 1 μg/mL for 24 h, Sigma, Israel). These cells were applied for ROI and Nitric Oxide (NO) generation in-vitro.
RAW 264.7 macrophages were treated with various doses (1-60 μg/ml) of HU-436 followed the addition of 1 μg/mL of lipopolysaccharide (LPS, E. coli, Sigma) for activation. The macrophages were then cultivated in a humid atmosphere with 5% CO2 for 24 h. NO generation was determined by measuring the nitrite accumulated in the supernatants (100 μL) of the HU-436-treated macrophages as follows: An equal volume (100 μL) of Griess reagent (1% sulfanilamide, 0.1% naphthalene diamine HCl, 2% H3PO4) was added to each supernatant. Following 10 min of incubation at room temperature, the color production was measured at 550 nm with an ELISA reader. The concentration of nitrite was calculated according to a standard curve. The results are presented in FIG. 1 wherein inhibition of more than 50% was found fallowing incubation of the cells with 60 μg/ml HU-436.
On the technique in general: The Griess reaction detects nitrite, a stable product of nitric oxide.

Regarding `C=C(C)C1CCC(C)=CC1c1c(OC)cc(CCCCC)cc1OC(=O)CCN1CCOCC1` [HU-436, Maleate Salt of 3-methoxy-2-((6R)-3-methyl-6-(prop-l-en-2-yl)cyclohex-2-enyl)-5-pentylphenyl 3-morpholinopropanoate], in the series with TNFα, the “reduction of TNFα levels in the sera” value is reported as “up to 20%”. Besides, the toxicity result in the series on C57BL (50 mg/Kg) and in the series with C57BL (100 mg/Kg) was “non-toxic” throughout. For the same compound, the inhibition at 40 µg/mL with TNF-α is over 60%. In addition, in the series with TNF, the “inhibition in TNF level in the serum” value is 46%. The same compound returned an inhibition at 60 µg/mL in the series with RAW 264.7 macrophages of over 50%.
